Earlier results as cited in publication PMC5742115, “Pharmacophore Modeling and in Silico/in Vitro Screening for Human Cytochrome P450 11B1 and Cytochrome P450 11B2 Inhibitors” (Frontiers in Chemistry, 2017).
Where two headings read alike, the source gives them in different places.

Columns and labels:
CYP11B2 = settings: cited from earlier work
CYP11B1 = settings: cited from earlier work
[1] = reported activity, supplementary Table 1, ref Heim et al., 2008, read-out: CYP11B2 IC50
[2] = reported activity, supplementary Table 1, ref Heim et al., 2008, read-out: CYP11B1 IC50
[3] = reported activity, supplementary Table 1, ref Ulmschneider et al., 2005a, read-out: CYP11B2 IC50
[4] = reported activity, supplementary Table 1, ref Ulmschneider et al., 2005a, read-out: CYP11B1 IC50
[5] = reported activity, supplementary Table 1, ref Hille et al., 2011a, read-out: CYP11B2 IC50
[6] = reported activity, supplementary Table 1, ref Hille et al., 2011a, read-out: CYP11B1 IC50
[7] = reported activity, supplementary Table 1, ref Gobbi et al., 2013, read-out: CYP11B2 IC50
[8] = reported activity, supplementary Table 1, ref Gobbi et al., 2013, read-out: CYP11B1 IC50
[9] = reported activity, supplementary Table 1, ref Hille et al., 2011b, read-out: CYP11B2 IC50
[10] = reported activity, supplementary Table 1, ref Hille et al., 2011b, read-out: CYP11B1 IC50
[11] = reported activity, supplementary Table 1, ref Pinto-Bazurco Mendieta et al., 2013, read-out: CYP11B2 IC50
[12] = reported activity, supplementary Table 1, ref Pinto-Bazurco Mendieta et al., 2013, read-out: CYP11B1 IC50
[13] = reported activity, supplementary Table 1, ref Lucas et al., 2011, read-out: CYP11B2 IC50
[14] = reported activity, supplementary Table 1, ref Lucas et al., 2011, read-out: CYP11B1 IC50
[15] = reported activity, supplementary Table 1, ref Roumen et al., 2010, read-out: CYP11B2 IC50
[16] = reported activity, supplementary Table 1, ref Roumen et al., 2010, read-out: CYP11B1 IC50
[17] = reported activity, supplementary Table 1, ref Emmerich et al., 2013, read-out: CYP11B2 IC50
[18] = reported activity, supplementary Table 1, ref Emmerich et al., 2013, read-out: CYP11B1 IC50
[19] = reported activity, supplementary Table 1, ref Ulmschneider et al., 2005b, read-out: CYP11B2 IC50
[20] = reported activity, supplementary Table 1, ref Ulmschneider et al., 2005b, read-out: CYP11B1 IC50
[21] = reported activity, supplementary Table 1, ref Meredith et al., 2013, read-out: CYP11B2 IC50
[22] = reported activity, supplementary Table 1, ref Meredith et al., 2013, read-out: CYP11B1 IC50

Compound: COC(=O)c1cncc(-c2ccc3cc(OC)ccc3c2)c1 [CHEMBL500146]
- IC50 (CYP11B2; [1]): 0.8 nM
- IC50 (CYP11B1; [2]): 15 nM

Compound: COc1cncc(-c2cc3ccc(OC)cc3cc2C)c1 [CHEMBL502818]
- IC50 (CYP11B2; [1]): 3.8 nM
- IC50 (CYP11B1; [2]): 875 nM

Compound: COc1ccc2cc(-c3cncc(CO)c3)ccc2c1 [CHEMBL448064]
- IC50 (CYP11B2; [1]): 9.1 nM
- IC50 (CYP11B1; [2]): 614 nM

Compound: Clc1cccc2c1CC/C2=C\c1cccnc1 [CHEMBL176287]
- IC50 (CYP11B2; [3]): 9 nM
- IC50 (CYP11B1; [4]): 304 nM

Compound: c1coc(-c2cc(Cn3ccnc3)cnc2-c2ccco2)c1 [CHEMBL2011437]
- IC50 (CYP11B2; [5]): 830 nM
- IC50 (CYP11B1; [6]): 29 nM

Compound: O=c1c2ccccc2oc2c(OCC3CC3)ccc(Cn3ccnc3)c12 [CHEMBL2333334]
- IC50 (CYP11B2; [7]): 24.1 nM
- IC50 (CYP11B1; [8]): 5.5 nM

Compound: c1ccc2c(-c3ccc(Cn4ccnc4)cn3)cncc2c1 [CHEMBL2011260]
- IC50 (CYP11B2; [5]): 914 nM
- IC50 (CYP11B1; [6]): 95 nM

Compound: c1ccc(-c2ccc(Cn3ccnc3)o2)cc1 [CHEMBL1651513]
- IC50 (CYP11B2; [9]): 372 nM
- IC50 (CYP11B1; [10]): 46 nM

Compound: C(=C1/CCc2ccccc21)/c1cccnc1 [CHEMBL364080]
- IC50 (CYP11B2; [3]): 11 nM
- IC50 (CYP11B1; [4]): 888 nM

Compound: COc1cncc(-c2ccc3cc(OC)ccc3c2)c1 [CHEMBL447591]
- IC50 (CYP11B2; [1]): 4.2 nM
- IC50 (CYP11B1; [2]): 238 nM

Compound: COc1ccc2c(Cl)c(-c3cccnc3)ccc2c1Cl [CHEMBL381014]
- IC50 (CYP11B2; reported activity, supplementary Table 1, ref Voets et al., 2005, read-out: CYP11B2 IC50): 28 nM
- IC50 (CYP11B1; reported activity, supplementary Table 1, ref Voets et al., 2005, read-out: CYP11B1 IC50): 4900 nM

Compound: c1ccc2c(-c3ccc(Cn4ccnc4)cn3)csc2c1 [CHEMBL2011433]
- IC50 (CYP11B2; [5]): 1160 nM
- IC50 (CYP11B1; [6]): 40 nM

Compound: COc1ccc2ccc(-c3cncc(F)c3)c(Cl)c2c1 [CHEMBL2420679]
- IC50 (CYP11B2; [11]): 38 nM
- IC50 (CYP11B1; [12]): 1420 nM

Compound: O=C1CCc2cc(-c3cncc4ccccc34)ccc2N1 [CHEMBL456390]
- IC50 (CYP11B2; reported activity, supplementary Table 1, ref Lucas et al., 2008b, read-out: CYP11B2 IC50): 0.2 nM
- IC50 (CYP11B1; reported activity, supplementary Table 1, ref Lucas et al., 2008b, read-out: CYP11B1 IC50): 33 nM

Compound: O=C1CCc2cc(-c3cncc(-c4cc(F)ccc4F)c3)cc3c2N1CC3 [CHEMBL1765223]
- IC50 (CYP11B2; [13]): 3.6 nM
- IC50 (CYP11B1; [14]): 183 nM

Compound: COC(=O)c1cncn1Cc1ccc(C#N)cc1 [CHEMBL591698]
- IC50 (CYP11B2; [15]): 7 nM
- IC50 (CYP11B1; [16]): 48 nM

Compound: Fc1cccc2c1CC/C2=C\c1cccnc1 [CHEMBL366490]
- IC50 (CYP11B2; [3]): 21 nM
- IC50 (CYP11B1; [4]): 774 nM

Compound: C=C(c1cc2c3c(c1)CCN3C(=O)CC2)n1ccnc1 [CHEMBL2163641]
- IC50 (CYP11B2; reported activity, supplementary Table 1, ref Yin et al., 2012, read-out: CYP11B2 IC50): 100 nM
- IC50 (CYP11B1; reported activity, supplementary Table 1, ref Yin et al., 2012, read-out: CYP11B1 IC50): 19 nM

Compound: COc1ccc(Cn2ccnc2)c2c(=O)c3ccccc3oc12 [CHEMBL2333329]
- IC50 (CYP11B2; [7]): 41.1 nM
- IC50 (CYP11B1; [8]): 80.1 nM

Compound: Cc1cncc(Cc2ccc(-c3ccccc3)nc2)c1 [CHEMBL2417553]
- IC50 (CYP11B2; [17]): 33 nM
- IC50 (CYP11B1; [18]): 2 nM

Compound: c1ccc(-c2ccccc2Cn2ccnc2)cc1 [CHEMBL1651496]
- IC50 (CYP11B2; [9]): 39 nM
- IC50 (CYP11B1; [10]): 15 nM

Compound: CCOc1cncc(-c2cc3c4c(c2)CCN4C(=O)CC3)c1 [CHEMBL1765209]
- IC50 (CYP11B2; [13]): 1 nM
- IC50 (CYP11B1; [14]): 158 nM

Compound: Fc1ccc2c(c1)CC/C2=C/c1ccncc1 [CHEMBL179144]
- IC50 (CYP11B2; [19]): 29 nM
- IC50 (CYP11B1; [20]): 34 nM

Compound: COc1ccc2cc(-c3cncc(C(C)OC)c3)ccc2c1 (stereo not shown) [CHEMBL500392]
- IC50 (CYP11B2; [1]): 0.2 nM
- IC50 (CYP11B1; [2]): 10 nM

Compound: S=C1CCc2cc(-c3cccnc3)cc3c2N1CC3 [CHEMBL1765232]
- IC50 (CYP11B2; [13]): 1.2 nM
- IC50 (CYP11B1; [14]): 333 nM

Compound: COc1ccc2cc(-c3cnccc3CO)ccc2c1 [CHEMBL449894]
- IC50 (CYP11B2; [1]): 22 nM
- IC50 (CYP11B1; [2]): 1760 nM

Compound: O=C1CCc2cc(-c3cncc(-c4cc(F)cc(F)c4)c3)cc3c2N1CC3 [CHEMBL1765225]
- IC50 (CYP11B2; [13]): 18 nM
- IC50 (CYP11B1; [14]): 1750 nM

Compound: c1ccc(-c2nc3ncc[nH]c-3n2)nc1 [CHEMBL201143]
- IC50 (CYP11B2; [5]): 251 nM
- IC50 (CYP11B1; [6]): 16 nM

Compound: Clc1ccc2c(c1)CC/C2=C/c1ccncc1 [CHEMBL175799]
- IC50 (CYP11B2; [3]): 36 nM
- IC50 (CYP11B1; [4]): 301 nM

Compound: Oc1ccc2ccc(-c3cncc4ccccc34)c(Cl)c2c1 [CHEMBL2420688]
- IC50 (CYP11B2; [11]): 66 nM
- IC50 (CYP11B1; [12]): 238 nM

Compound: Oc1cncc(-c2ccc3ccc(O)cc3c2Cl)c1 [CHEMBL2420684]
- IC50 (CYP11B2; [11]): 27 nM
- IC50 (CYP11B1; [12]): 2840 nM

Compound: c1csc(-c2ccc(Cn3ccnc3)cn2)c1 [CHEMBL2011261]
- IC50 (CYP11B2; [5]): 1240 nM
- IC50 (CYP11B1; [6]): 75 nM

Compound: c1cn(C(c2ccc(-c3ccsc3)nc2)C2CC2)cn1 (stereo not shown) [CHEMBL2417626]
- IC50 (CYP11B2; [17]): 31 nM
- IC50 (CYP11B1; [18]): 11 nM

Compound: Oc1ccc2ccc(-c3cccnc3)c(F)c2c1 [CHEMBL2420676]
- IC50 (CYP11B2; [11]): 30 nM
- IC50 (CYP11B1; [12]): 1160 nM

Compound: N#Cc1ccc([C@H]2CCCCc3cncn32)c(-c2ccc(F)cc2)c1 [CHEMBL3099704]
- IC50 (CYP11B2; [21]): 0.3 nM
- IC50 (CYP11B1; [22]): 0.4 nM

Compound: c1ccc(-c2csc(Cn3ccnc3)c2)cc1 [CHEMBL403598]
- IC50 (CYP11B2; [9]): 277 nM
- IC50 (CYP11B1; [10]): 19 nM

Compound: O=C1CCc2cc(-c3cncc(F)c3)cc3c2N1CC3 [CHEMBL1765212]
- IC50 (CYP11B2; [13]): 4.4 nM
- IC50 (CYP11B1; [14]): 1290 nM

Compound: Cc1cc(C)cc(Cn2ccnc2)c1 [CHEMBL1651494]
- IC50 (CYP11B2; [9]): 77 nM
- IC50 (CYP11B1; [10]): 32 nM

Compound: N#Cc1ccc(Cn2cncc2-c2cccc(F)c2)cc1 [CHEMBL598789]
- IC50 (CYP11B2; [15]): 5.5 nM
- IC50 (CYP11B1; [16]): 32 nM

Compound: COc1ccc2c(c1)CC(C)C(c1cccnc1)=C2 (stereo not shown) [CHEMBL502266]
- IC50 (CYP11B2; [1]): 3.3 nM
- IC50 (CYP11B1; [2]): 248 nM

Compound: c1ccc2c(-c3ccc(Cn4ccnc4)cn3)cccc2c1 [CHEMBL2011253]
- IC50 (CYP11B2; [17]): 656 nM
- IC50 (CYP11B2; [5]): 2080 nM
- IC50 (CYP11B1; [18]): 68 nM
- IC50 (CYP11B1; [6]): 42 nM

Compound: N#Cc1ccc([C@H]2CCCCc3cncn32)c(F)c1 [CHEMBL3099683]
- IC50 (CYP11B2; [21]): 0.3 nM
- IC50 (CYP11B1; [22]): 1 nM

Compound: c1ccc(-c2ccc(C(C3CC3)n3ccnc3)cn2)cc1 (stereo not shown) [CHEMBL2417621]
- IC50 (CYP11B2; [17]): 25 nM
- IC50 (CYP11B1; [18]): 21 nM

Compound: Clc1ccc2c(c1)CC/C2=C/c1c[nH]cn1 [CHEMBL175688]
- IC50 (CYP11B2; [19]): 3.7 nM
- IC50 (CYP11B1; [20]): 19.5 nM

Compound: COC(=O)CCc1cncn1Cc1ccc(F)cc1 [CHEMBL599622]
- IC50 (CYP11B2; [15]): 50 nM
- IC50 (CYP11B1; [16]): 104 nM

Compound: OCCCc1cncn1Cc1ccc(Cl)cc1 [CHEMBL598606]
- IC50 (CYP11B2; [15]): 55 nM
- IC50 (CYP11B1; [16]): 44 nM

Compound: COCc1cncc(-c2ccc3cc(OC)ccc3c2)c1 [CHEMBL500421]
- IC50 (CYP11B2; [1]): 0.2 nM
- IC50 (CYP11B1; [2]): 31 nM

Compound: Cc1cncc(Cc2ccc(-c3ccccc3)nc2)c1 [Compound 1]
- IC50 (CYP11B2; Figure 2, ref Yin et al., 2012, Emmerich et al., 2013, Gobbi et al., 2016, read-out: hCYP11B2 IC50): 33 nM
- IC50 (CYP11B1; Figure 2, ref Yin et al., 2012, Emmerich et al., 2013, Gobbi et al., 2016, read-out: hCYP11B1 IC50): 2 nM

Compound: Cc1cccc(-c2cncn2Cc2ccc(C#N)cc2)c1 [CHEMBL607862]
- IC50 (CYP11B2; [15]): 5.2 nM
- IC50 (CYP11B1; [16]): 6.2 nM
